Measured values published in ChEMBL document CHEMBL3988442, “University of Dundee, Small-Polar-MMV Screening Library” (2021).
Several values for one entry are separate records, joined by “and”; a condition that tells them apart may be missing. Equal values may be shown once.

Columns and labels:
Lysine--tRNA ligase = Lysine--tRNA ligase (Plasmodium falciparum (isolate 3D7), UniProt Q8IDJ8); assay: Pf-KRS-1 (Lysyl-RNA Synthetase-1, KRS-1, cytosolic KRS) from Plasmodium falciparum. Inhibitor assay, 384 well plate, luminescence read.; type: functional
Lysine--tRNA ligase, sequence (Q8IDJ8 whole entry): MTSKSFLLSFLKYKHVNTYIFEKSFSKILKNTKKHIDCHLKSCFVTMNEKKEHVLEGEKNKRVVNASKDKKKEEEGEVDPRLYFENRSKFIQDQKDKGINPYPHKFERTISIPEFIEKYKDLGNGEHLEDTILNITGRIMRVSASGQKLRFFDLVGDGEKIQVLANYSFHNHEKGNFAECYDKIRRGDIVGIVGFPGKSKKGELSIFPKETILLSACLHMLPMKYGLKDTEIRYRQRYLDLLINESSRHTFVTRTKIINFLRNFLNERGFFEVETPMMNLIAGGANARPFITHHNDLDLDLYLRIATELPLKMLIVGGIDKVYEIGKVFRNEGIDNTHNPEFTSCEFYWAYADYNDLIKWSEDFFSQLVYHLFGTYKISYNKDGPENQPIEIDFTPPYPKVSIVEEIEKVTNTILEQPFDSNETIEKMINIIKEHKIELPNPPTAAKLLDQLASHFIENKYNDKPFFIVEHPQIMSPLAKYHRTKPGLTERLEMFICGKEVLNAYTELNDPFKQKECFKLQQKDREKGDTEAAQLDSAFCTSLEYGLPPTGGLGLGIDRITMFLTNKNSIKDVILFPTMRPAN

[1] = molecular target: T1, Coenzyme A biosynthesis bifunctional protein CoaBC (Mycobacterium tuberculosis (strain ATCC 25618 / H37Rv), UniProt P9WNZ1); assay: Biomol Green assay for MtCoaBC inhibitor, OD650 read; type: functional
T1 sequence (P9WNZ1 whole entry): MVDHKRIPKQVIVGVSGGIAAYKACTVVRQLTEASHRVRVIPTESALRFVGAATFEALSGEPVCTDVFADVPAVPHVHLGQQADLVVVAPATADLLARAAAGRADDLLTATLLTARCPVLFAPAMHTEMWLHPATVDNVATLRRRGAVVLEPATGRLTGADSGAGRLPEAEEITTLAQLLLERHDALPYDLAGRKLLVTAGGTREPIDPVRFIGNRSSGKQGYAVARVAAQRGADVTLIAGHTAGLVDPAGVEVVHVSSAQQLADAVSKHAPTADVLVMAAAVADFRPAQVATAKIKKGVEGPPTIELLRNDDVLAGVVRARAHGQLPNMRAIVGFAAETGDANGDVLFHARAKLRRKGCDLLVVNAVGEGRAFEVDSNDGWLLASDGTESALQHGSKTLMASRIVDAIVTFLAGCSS

Leishmania donovani = assay: Leishmania intramacrophage assay; type: functional, organism-based; settings: Leishmania donovani
Histidine--tRNA ligase = molecular target: T2, Histidine--tRNA ligase (Leishmania infantum, UniProt A4I591); assay: Leishmania infantum Histidine tRNA synthetase (LdHisRS); type: functional
T2 sequence (A4I591 whole entry): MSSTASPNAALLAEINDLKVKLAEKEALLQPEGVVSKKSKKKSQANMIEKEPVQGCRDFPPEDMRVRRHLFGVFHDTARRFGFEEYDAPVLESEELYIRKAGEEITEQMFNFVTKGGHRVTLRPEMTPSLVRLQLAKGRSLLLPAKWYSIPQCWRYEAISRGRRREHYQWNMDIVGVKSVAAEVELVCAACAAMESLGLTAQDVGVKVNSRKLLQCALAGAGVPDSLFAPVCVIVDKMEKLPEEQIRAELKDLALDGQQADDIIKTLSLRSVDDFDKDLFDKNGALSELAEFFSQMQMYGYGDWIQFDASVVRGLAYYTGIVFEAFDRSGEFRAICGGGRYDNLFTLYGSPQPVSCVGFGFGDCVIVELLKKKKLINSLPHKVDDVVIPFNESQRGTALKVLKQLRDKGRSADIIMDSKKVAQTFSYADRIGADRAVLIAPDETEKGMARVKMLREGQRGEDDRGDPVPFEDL

[2] = In vitro enzyme assay to detect hydrolysis of chlorophenol red-beta-D-[…] directly proportional to the number of Toxoplasma stably expressing beta-galactosidase; type: functional, organism-based, Toxoplasma gondii; settings: for IC50: Toxoplasma gondii
ClpP1P2 = ClpP1P2 (Mycobacterium tuberculosis (strain ATCC 25618 / H37Rv), UniProt P9WPC3+P9WPC5); assay: in vitro assay to detect presence of AMC directly proportional to the activity of ClpP1P2. GHDDI collaboration.; type: functional
ClpP1P2, sequence (P9WPC5 whole entry): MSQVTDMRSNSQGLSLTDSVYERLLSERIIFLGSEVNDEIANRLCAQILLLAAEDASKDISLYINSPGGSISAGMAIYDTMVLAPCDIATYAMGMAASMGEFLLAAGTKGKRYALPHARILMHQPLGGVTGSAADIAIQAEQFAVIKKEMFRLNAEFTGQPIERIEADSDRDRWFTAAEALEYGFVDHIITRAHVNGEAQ
ClpP1P2, sequence (P9WPC3 whole entry): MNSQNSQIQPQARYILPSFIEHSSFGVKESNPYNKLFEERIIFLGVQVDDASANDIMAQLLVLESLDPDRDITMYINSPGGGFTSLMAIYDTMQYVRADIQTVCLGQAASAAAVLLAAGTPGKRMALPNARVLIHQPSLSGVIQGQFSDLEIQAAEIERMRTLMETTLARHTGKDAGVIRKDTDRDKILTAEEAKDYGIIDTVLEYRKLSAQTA

SMILES: COc1nccnc1N1CCC2(CC1)[C@H](O)C[C@@H]2OCCN(C)C
- IC50 (Lysine--tRNA ligase): > 50.1 µM

SMILES: CCOC(=O)C1CCCN(Cc2cc(C#N)n(C)c2C)C1 (configuration not stated)
- IC50 (Lysine--tRNA ligase): > 50.1 µM

SMILES: O=C(O)CN1CCC(F)(F)C2(CCN(c3ccccc3)C2)C1 (configuration not stated)
- IC50 [1]: > 30.2 µM
- IC50 (Leishmania donovani): > 50.1 µM
- IC50 (Histidine--tRNA ligase): 43.6 µM and 39.5 µM

SMILES: COc1cc(CNC(C)Cn2ccnc2)cc2c1OCO2 (configuration not stated)
- IC50 (Lysine--tRNA ligase): > 50.1 µM

SMILES: COCc1cc(N(CC(F)F)C2CC2)n2ncnc2n1
- IC50 (Lysine--tRNA ligase): > 50.1 µM

SMILES: COc1cc(C2CC(=O)Nc3c2nc2n3CCCC2)cc(OC)c1O (configuration not stated)
- IC50 (Lysine--tRNA ligase): > 50.1 µM

SMILES: Cc1cc(C)c2nc(CN[C@H]3CCCNC3)cc(O)c2c1
- IC50 (Lysine--tRNA ligase): > 50.1 µM

SMILES: Cc1ccc(C2CCCN2Cc2nc3c(cnn3C)c(=O)[nH]2)cc1C (configuration not stated)
- IC50 (Lysine--tRNA ligase): > 50.1 µM

SMILES: C=C(C)Cn1ccc2cc(OC)c(F)cc2c1=O
- IC50 (Lysine--tRNA ligase): > 50.1 µM

SMILES: CC(Nc1ccn(Cc2ccccn2)n1)C(=O)NC(C)(C)C (configuration not stated)
- IC50 (Lysine--tRNA ligase): > 50.1 µM

SMILES: CC(=O)N1CC(=O)N(c2ccsc2)CC12CCN(Cc1ccccn1)C2 (configuration not stated)
- IC50 (Lysine--tRNA ligase): > 50.1 µM

SMILES: Fc1cccc(CN2CCN(Cc3cscn3)CC2)c1
- IC50 (Lysine--tRNA ligase): > 50.1 µM

SMILES: Cc1ccc(C2(O)CCN(Cc3nc(C)n4ccccc34)CC2)nc1
- IC50 (Lysine--tRNA ligase): > 50.1 µM

SMILES: CCc1nnsc1C(=O)N1CCCN(Cc2ccccc2)CC1
- IC50 (Lysine--tRNA ligase): > 50.1 µM

SMILES: NC(=O)c1ccc(CN2C(=O)C3(CCNCC3)Nc3ccccc32)cc1
- IC50 (Lysine--tRNA ligase): > 50.1 µM

SMILES: O=C(c1c[nH]nn1)N1CCCC1C1CCCCC1 (configuration not stated)
- IC50 (Lysine--tRNA ligase): 42.3 µM

SMILES: c1cc(-c2cn[nH]c2)ncc1CN1CCCCC1
- IC50 (Lysine--tRNA ligase): > 50.1 µM

SMILES: CCOCC1CN(Cc2ccc(OC)cc2)Cc2nn(CC3CC3)cc21 (configuration not stated)
- IC50 (Lysine--tRNA ligase): > 50.1 µM

SMILES: CC(C)(C)c1cc(CN2CCOC(CCc3ccccc3)C2)n[nH]1 (configuration not stated)
- IC50 (Lysine--tRNA ligase): > 50.1 µM

SMILES: Cc1cc(C2CCC2)nc(N2CCC3(CC2)OCCCC3O)n1 (configuration not stated)
- IC50 (Lysine--tRNA ligase): > 50.1 µM

SMILES: CCCc1ccc(CN2CCN(c3ncccn3)[C@@H]3CS(=O)(=O)C[C@@H]32)o1
- IC50 (Lysine--tRNA ligase): > 50.1 µM

SMILES: O=C(NCc1cccs1)NCC(O)(c1cccs1)C1CC1 (configuration not stated)
- IC50 (Lysine--tRNA ligase): > 50.1 µM

SMILES: Cc1ccc(CN2CCCN(Cc3cscn3)CC2)cc1
- IC50 (Lysine--tRNA ligase): > 50.1 µM

SMILES: CSc1ncnc(NCc2cccs2)c1C#N
- IC50 (Lysine--tRNA ligase): > 50.1 µM

SMILES: COc1c(F)cc(-c2cn(CCn3c(C)cc(C)nc3=O)nn2)cc1Cl
- IC50 (Lysine--tRNA ligase): > 50.1 µM

SMILES: Cc1ccnc(NCCNC(=O)C2CC3(CCNCC3)CN2C)c1 (configuration not stated)
- IC50 (Lysine--tRNA ligase): > 50.1 µM

SMILES: Cc1nc(N(C)C)ncc1C(=O)NCCc1csc(-c2ccncc2)n1
- IC50 (Lysine--tRNA ligase): > 50.1 µM

SMILES: COc1c(C)cnc(CN(C)C(=O)c2ccccc2F)c1C
- IC50 (Lysine--tRNA ligase): > 50.1 µM

SMILES: O=C(NCc1csc(Br)c1)c1cnccn1
- IC50 (Lysine--tRNA ligase): > 50.1 µM

SMILES: CCN(C)C(=O)c1cc(-c2ccn(C(C)C)n2)n2ccccc12
- IC50 (Lysine--tRNA ligase): > 50.1 µM

SMILES: O=C(NCc1csc(Br)c1)c1ccncc1
- IC50 (Lysine--tRNA ligase): > 50.1 µM

SMILES: O=C(NCc1ccc(Cl)s1)c1ccc(N2CCOC2=O)cc1
- IC50 (Lysine--tRNA ligase): > 50.1 µM

SMILES: c1cnn(C2CN(c3ncnc4[nH]ccc34)C2)c1
- IC50 (Lysine--tRNA ligase): > 50.1 µM

SMILES: Cc1ccc(C(=O)NCc2cc(F)ccc2N2CCCN(C)CC2)o1
- IC50 (Lysine--tRNA ligase): > 50.1 µM

SMILES: CCCS(=O)(=O)N1CCOC2(COCCN(C(C)=O)C2)C1 (configuration not stated)
- IC50 (Lysine--tRNA ligase): > 50.1 µM

SMILES: Cc1nc(NC(=O)CN2CCOC(Cn3cccn3)C2)sc1C (configuration not stated)
- IC50 (Lysine--tRNA ligase): > 50.1 µM

SMILES: CC(C)SCCn1ccc2[nH]c(=O)c(C#N)cc2c1=O
- IC50 (Lysine--tRNA ligase): > 50.1 µM

SMILES: Cc1cccc2c1nc(CCO)n2-c1ccc(N)nc1
- IC50 (Lysine--tRNA ligase): > 50.1 µM

SMILES: COc1cc(NC(=O)N(C)Cc2ccc(Br)o2)ncn1
- IC50 (Lysine--tRNA ligase): > 50.1 µM

SMILES: CCCc1ccc(CN2CCN(C(=O)C(C)C)[C@@H]3CS(=O)(=O)C[C@@H]32)o1
- IC50 (Lysine--tRNA ligase): > 50.1 µM

SMILES: Clc1snnc1CN1CCCCC1Cn1cncn1 (configuration not stated)
- IC50 (Lysine--tRNA ligase): > 50.1 µM

SMILES: CNC(=O)c1ccc2c(c1)C1(CCN(CC(C)C)CC1)C(=O)N2
- IC50 (Lysine--tRNA ligase): > 50.1 µM

SMILES: c1cnc(N2CCCC(NCc3ccc(-n4ccnc4)cc3)C2)nc1 (configuration not stated)
- IC50 (Lysine--tRNA ligase): > 50.1 µM

SMILES: O=C(NCC1CCC1)c1ccnc(-n2ccnc2)c1
- IC50 (Lysine--tRNA ligase): > 50.1 µM

SMILES: Cc1nc[nH]c1CN1CCn2nc(CN3CC[C@H](F)C3)cc2C1
- IC50 (Lysine--tRNA ligase): > 50.1 µM

SMILES: Cc1nc(CCC(=O)N2Cc3cnc(-c4ccccc4)nc3C2)n[nH]1
- IC50 (Lysine--tRNA ligase): > 50.1 µM

SMILES: CC1CCC(N2Cc3nc(N)ncc3C2=O)CC1 (configuration not stated)
- IC50 (Lysine--tRNA ligase): > 50.1 µM

SMILES: NCC1Cc2cc(Oc3cc(F)c(CN4CCCC4)c(F)c3)ccc2O1 (configuration not stated)
- IC50 [1]: > 30.2 µM
- IC50 [2]: 20.4 µM
- IC50 (Histidine--tRNA ligase): 30.2 µM and 36.9 µM
- IC50 (ClpP1P2): 20.8 µM

SMILES: CCn1cc(-c2cc(C(F)(F)F)nc(NC3CCCC3)n2)c(C)n1
- IC50 [1]: > 30.2 µM
- IC50 (Leishmania donovani): > 50.1 µM
- pIC50 [2]: 4.783
- IC50 [2]: 17.8 µM
